Source: US9399646B2 (Genentech, Inc., priority 2010, dated 2016)

Columns and labels:
MCF-7 cells = experiment: Breast cancer cell viability assay (CellTiter-Glo, 5 days); format: cell-based; conditions: 5 days' compound exposure; for IC50: Homo sapiens, MCF7, 120 h
How it was run: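 Eleven-point semilog compound series, final 0.3-0.000003 μM, added to overnight-adhered MCF-7 cells (320/well; RPMI, 10% FBS, 20 mM HEPES) for 5 days. Viability read by CellTiter-Glo luminescence, background from medium without cells subtracted, expressed relative to untreated cells.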

ER-α in MCF-7 cells = target: T1, ER-α in MCF-7 cells (Homo sapiens, UniProt P03372); experiment: Breast cancer cell ER-α in cell western assay (SP1); format: cell-based; parameters: endogenous in cells; host or cells: MCF-7; conditions: 4 or 24 hr post compound addition; for Emax: MCF7, SP1 antibody, read-out: ER-α In Cell Western Assay (SP1) Max Response; for DC50: SP1 antibody, read-out: ER-α In Cell Western Assay (SP1) IC50
T1 sequence (P03372 1-595): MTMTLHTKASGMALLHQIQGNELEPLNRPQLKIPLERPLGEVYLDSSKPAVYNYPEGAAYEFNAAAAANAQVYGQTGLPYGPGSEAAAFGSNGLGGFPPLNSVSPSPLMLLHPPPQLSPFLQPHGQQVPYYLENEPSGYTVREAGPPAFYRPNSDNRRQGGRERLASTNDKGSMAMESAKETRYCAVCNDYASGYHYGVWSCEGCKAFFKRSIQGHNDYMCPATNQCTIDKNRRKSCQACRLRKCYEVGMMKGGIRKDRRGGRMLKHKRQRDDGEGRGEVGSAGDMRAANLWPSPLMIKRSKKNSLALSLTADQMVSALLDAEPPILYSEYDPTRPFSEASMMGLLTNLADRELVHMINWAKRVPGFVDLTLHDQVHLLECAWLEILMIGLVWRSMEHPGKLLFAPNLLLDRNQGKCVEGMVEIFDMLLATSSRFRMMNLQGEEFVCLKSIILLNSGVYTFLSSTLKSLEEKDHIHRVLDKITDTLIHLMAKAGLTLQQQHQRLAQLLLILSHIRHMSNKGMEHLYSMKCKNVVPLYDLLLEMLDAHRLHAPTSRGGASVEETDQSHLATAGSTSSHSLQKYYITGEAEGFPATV
How it was run: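 Read-out is infrared in-cell western: SP1-detected ER intensity at 800 nm divided by DRAQ5 DNA intensity at 700 nm, relative to untreated wells ×100.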

Row | SMILES | IC50 (MCF-7 cells) | Emax (ER-α in MCF-7 cells) | DC50 (ER-α in MCF-7 cells) | MCF7 Viability Assay Max Response (MCF-7 cells)
1 | CC/C(=C(/c1ccc(/C=C/C(=O)O)cc1)c1ccc2[nH]ncc2c1)c1cccc(N2CCCC2)c1 [Compound 249] | > 100 nM | ≥ 40% | ≤ 100 nM | ++ (++ = a single % value ≧ 40%)
2 | CC/C(=C(/c1ccc(/C=C/C(=O)O)cc1)c1ccc2[nH]ncc2c1)c1ccc2c(c1)OCCO2 [Compound 250, (E)-3-(4-((E)-2-(2,3-Dihydrobenzo[b][1,4]dioxin-6-yl)-1-(1H-indazol-5-yl)but-1-en-1-yl)phenyl)acrylic acid] | ≤ 100 nM | ≥ 40% | ≤ 100 nM | ++ (++ = a single % value ≧ 40%)
3 | CC/C(=C(/c1ccc(/C=C/C(=O)O)cc1)c1ccc2[nH]ncc2c1)c1cccc(-n2cccn2)c1 [Compound 252, (E)-3-(4-((E)-2-(3-(1H-Pyrazol-1-yl)phenyl)-1-(1H-indazol-5-yl)but-1-en-1-yl)phenyl)acrylic acid] | > 100 nM | ≥ 40% | ≤ 100 nM | ++ (++ = a single % value ≧ 40%)
4 | Cc1cscc1/C(CC(C)C)=C(\c1ccc(/C=C/C(=O)O)cc1)c1ccc2[nH]ncc2c1 [Compound 257, (E)-3-(4-((E)-1-(1H-Indazol-5-l)-4-methyl-2-(4-methylthiophen-3-yl)pent-1-en-1-yl)phenyl)acrylic acid] | ≤ 100 nM | ≥ 40% | ≤ 100 nM | ++ (++ = a single % value ≧ 40%)
5 | CC/C(=C(/c1ccc(/C=C/C(=O)O)cc1)c1ccc2[nH]ncc2c1)c1ccc2nccn2c1 [Compound 260, (E)-3-(4-((E)-2-(Imidazo[1,2-a]pyridin-6-yl)-1-(1H-indazol-5-yl)but-1-en-1-yl)phenyl)acrylic acid] | > 100 nM | < 40% | > 100 nM | + (+ = a single % value < 40%)
6 | CC/C(=C(/c1ccc(/C=C/C(=O)O)cc1)c1ccc2[nH]ncc2c1)c1cccc(Oc2ccccc2)c1 [Compound 261, (E)-3-(4-((E)-1-(1H-Indazol-5-yl)-2-(3-phenoxyphenyl)but-1-en-1-yl)phenyl)acrylic acid] | ≤ 100 nM | ≥ 40% | ≤ 100 nM | ++ (++ = a single % value ≧ 40%)
7 | CC/C(=C(/c1ccc(/C=C/C(=O)O)cc1)c1ccc2[nH]ncc2c1)c1ccc2c(c1)N(C)C(=O)CO2 [Compound 262, (E)-3-(4-((E)-1-(1H-Indazol-5-yl)-2-(4-methyl-3-oxo-3,4-dihydro-2H-benzo[b][1,4]oxazin-6-yl)but-1-en-1-yl)phenyl)acrylic acid] | > 100 nM | ≥ 40% | > 100 nM | ++ (++ = a single % value ≧ 40%)
8 | CC/C(=C(/c1ccc(/C=C/C(=O)O)cc1)c1ccc2[nH]ncc2c1)c1ccc(Oc2ccccc2)cc1 [Compound 263, (E)-3-(4-((E)-1-(1H-Indazol-5-yl)-2-(4-phenoxyphenyl)but-1-en-1-yl)phenyl)acrylic acid] | ≤ 100 nM | ≥ 40% | ≤ 100 nM | ++ (++ = a single % value ≧ 40%)
9 | CC/C(=C(/c1ccc(/C=C/C(=O)O)cc1)c1ccc2[nH]ncc2c1)c1ccc(-n2cccn2)cc1 [Compound 264, (E)-3-(4-((E)-2-(4-(1H-Pyrazol-1-yl)phenyl)-1-(1H-indazol-5-yl)but-1-en-1-yl)phenyl)acrylic acid] | > 100 nM | ≥ 40% | > 100 nM | ++ (++ = a single % value ≧ 40%)
10 | CC/C(=C(/c1ccc(/C=C/C(=O)O)cc1)c1ccc2[nH]ncc2c1)c1cccc(N2CCOCC2)c1 [Compound 265, (E)-3-(4-((E)-1-(1H-Indazol-5-yl)-2-(3-morpholinophenyl)but-1-en-1-yl)phenyl)acrylic acid] | > 100 nM | ≥ 40% | > 100 nM | ++ (++ = a single % value ≧ 40%)
11 | CC/C(=C(/c1ccc(/C=C/C(=O)O)cc1)c1ccc2[nH]ncc2c1)c1ccc2nccnc2c1 [Compound 266, (E)-3-(4-((E)-1-(1H-Indazol-5-yl)-2-(quinoxalin-6-yl)but-1-en-1-yl)phenyl)acrylic acid] | ≤ 100 nM | ≥ 40% | ≤ 100 nM | ++ (++ = a single % value ≧ 40%)

More lines, main results first:

Row | IC50 (MCF-7 cells) | Emax (ER-α in MCF-7 cells) | DC50 (ER-α in MCF-7 cells) | SMILES | MCF7 Viability Assay Max Response (MCF-7 cells)
12 | ≤ 100 nM | ≥ 40% | ≤ 100 nM | CC/C(=C(/c1ccc(/C=C/C(=O)O)cc1)c1cc(F)c2[nH]ncc2c1)c1ccncc1Cl [Compound 245, (E)-3-(4-((E)-2-(3-chloropyridin-4-yl)-1-(7-fluoro-1H-indazol-5-yl)but-1-en-1-yl)phenyl)acrylic acid] | ++ (++ = a single % value ≧ 40%)
13 | > 100 nM | ≥ 40% | > 100 nM | CC/C(=C(/c1ccc(/C=C/C(=O)O)cc1)c1cnc2[nH]ccc2n1)c1ccccc1 [Compound 246, (E)-3-(4-((E)-2-Phenyl-1-(5H-pyrrolo[2,3-b]pyrazin-2-yl)but-1-en-1-yl)phenyl)acrylic acid] | + (+ = a single % value < 40%)
14 | ≤ 100 nM | ≥ 40% | ≤ 100 nM | CC/C(=C(/c1ccc(/C=C/C(=O)O)cc1)c1ccc2[nH]ncc2c1)c1ccc2occc2c1 [Compound 247, (E)-3-(4-((E)-2-(Benzofuran-5-yl)-1-(1H-indazol-5-yl)but-1-en-1-yl)phenyl)acrylic acid] | ++ (++ = a single % value ≧ 40%)
15 | > 100 nM | ≥ 40% | > 100 nM | CC/C(=C(/c1ccc(/C=C/C(=O)O)cc1)c1ccc2[nH]ncc2c1)c1ccc2cn[nH]c2c1 [Compound 251, (E)-3-(4-((E)-1-(1H-Indazol-5-yl)-2-(1H-indazol-6-yl)but-1-en-1-yl)phenyl)acrylic acid] | ++ (++ = a single % value ≧ 40%)
16 | ≤ 100 nM | ≥ 40% | ≤ 100 nM | CC/C(=C(/c1ccc(/C=C/C(=O)O)cc1)c1cc(F)c2[nH]ccc2c1)c1ccc(Cl)cc1Cl [Compound 253, (E)-3-(4-((E)-2-(2,4-Dichlorophenyl)-1-(7-fluoro-1H-indol-5-yl)but-1-en-1-yl)phenyl)acrylic acid] | ++ (++ = a single % value ≧ 40%)
17 | ≤ 100 nM | ≥ 40% | ≤ 100 nM | CC/C(=C(/c1ccc(/C=C/C(=O)O)cc1)c1cc(F)c2[nH]ccc2c1)c1ccc(F)cc1Cl [Compound 254, (E)-3-(4-((E)-2-(2-Chloro-4-fluorophenyl)-1-(7-fluoro-1H-indol-5-yl)but-1-en-1-yl)phenyl)acrylic acid] | ++ (++ = a single % value ≧ 40%)
18 | ≤ 100 nM | ≥ 40% | ≤ 100 nM | CC/C(=C(/c1ccc(/C=C/C(=O)O)cc1)c1ccc2[nH]ncc2c1)c1ccc2scnc2c1 [Compound 255, (E)-3-(4-((E)-2-(Benzo[d]thiazol-5-yl)-1-(1H-indazol-5-yl)but-1-en-1-yl)phenyl)acrylic acid] | ++ (++ = a single % value ≧ 40%)
19 | ≤ 100 nM | ≥ 40% | ≤ 100 nM | CC/C(=C(/c1ccc(/C=C/C(=O)O)cc1)c1ccc2[nH]ncc2c1)c1ccc2c(c1)CCO2 [Compound 256, (E)-3-(4-((E)-2-(2,3-Dihydrobenzofuran-5-yl)-1-(1H-indazol-5-yl)but-1-en-1-yl)phenyl)acrylic acid] | ++ (++ = a single % value ≧ 40%)
20 | > 100 nM | ≥ 40% | ≤ 100 nM | CC/C(=C(/c1ccc(/C=C/C(=O)O)cc1)c1ccc2[nH]ncc2c1)c1ccc2cnn(C)c2c1 [Compound 258, (E)-3-(4-((E)-1-(1H-Indazol-5-yl)-2-(1-methyl-1H-indazol-6-yl)but-1-en-1-yl)phenyl)acrylic acid] | ++ (++ = a single % value ≧ 40%)
21 | ≤ 100 nM | ≥ 40% | ≤ 100 nM | CC/C(=C(/c1ccc(/C=C/C(=O)O)cc1)c1ccc2[nH]ncc2c1)c1ccc2ncsc2c1 [Compound 259, (E)-3-(4-((E)-2-(Benzo[d]thiazol-6-yl)-1-(1H-indazol-5-yl)but-1-en-1-yl)phenyl)acrylic acid] | ++ (++ = a single % value ≧ 40%)
22 | ≤ 100 nM | ≥ 40% | ≤ 100 nM | CC/C(=C(/c1ccc(/C=C/C(=O)O)cc1)c1ccc2[nH]ncc2c1)c1ccsc1Cl [Compound 267, (E)-3-(4-((E)-2-(2-Chlorothiophen-3-yl)-1-(1H-indazol-5-yl)but-1-en-1-yl)phenyl)acrylic acid] | ++ (++ = a single % value ≧ 40%)
